Experimental data published in US8940310B2, “Methods of treatment using TLR7 and/or TLR9 inhibitors” (Dynavax Technologies Corporation, priority 2010, dated 2015).
Marks after values point to notes of the source that are not given here. [I] = hypoxanthine (inosine)

Experiments:
PDC = conditions: 129 mice, conventional and plasmacytoid DC, spleen and blood
[1] = Solubility of spacer measured as dialcohol precursor; assay type: physicochemical; conditions: dodecyl spacer measured as dialcohol precursor
[2] = Monomer and tetramer formation of IRPs, size-exclusion HPLC; assay type: physicochemical; conditions: 100 mg/mL in PBS and 0.5M KCl, room temperature
Protocol: Solutions were prepared of the by mixing 100 mg/mL of the IRP sequences in PBS and 0.5M KCl and storing at room temperature for three to five weeks. The solutions were subsequently analyzed by size-exclusion HPLC.

human B-cells = experiment: Human B-cells cultured in the presence of IRPs, IL-6
Protocol: For the human B-cell assay, B-cells were purified from total blood cells obtained from healthy donors using magnetic beads (CD19 positive). Cells were resuspended in fresh medium (RPMI 1640 with 10% fetal calf serum, 50 units/mL penicillin, 50 μg/mL streptomycin, and 2 mM glutamine). At 48 hours, supernatants were collected and cytokine levels, IL-6, were measured using immunoassay.
To further investigate the effect of IRPs on B-cell stimulatory activity, a wide variety of IRP sequences were assayed for IL-6, along with positive and negative controls. The experiment was performed as described in Example 1 using doses of IRP of either 4.0 μM or 2.0 μM. The positive control was an immunostimulatory sequence (ISS) with SEQ ID NO:157. […] The results are presented as the average normalized IL-6 response over several experiments.

[3] = High dosages of IRPs in rats (weight, deaths, histology); assay type: in vivo, Sprague Dawley rats; conditions: rat; for Heart: Cell Vacuolation, number of animals / Heart: Hemorrhage, number of animals / Heart: Mononuclear Cell Infiltration, number of animals / Heart: Necrosis, number of animals / Heart: No significant changes, number of animals / Liver: Liver changes, number of animals / Liver: Mixed cell infiltration, number of animals / Liver: Necrosis, number of animals / Liver: No significant changes, number of animals / Liver: Vacuolation, number of animals / Right Kidney: Hydronephrosis, number of animals / Right Kidney: Mineralization, number of animals / Right Kidney: Necrosis, number of animals / Right Kidney: No significant changes, number of animals / Right Kidney: Tubular basophilia, number of animals / Right Kidney: Tubular changes, number of animals: 6 animals
Protocol: To test the activity of IRPs at high dosages in rats, IRPs (SEQ ID NO:42 and SEQ ID NO:109) or a control (PBS) were subcutaneously administered to 8-9 weeks old, […], 3, 6, and 9 (n=6 per group). Rats were weighed prior to administration and on days 1, 3, 4, 6, 7, and 9. Organs were harvested at the end of the study, and organ weights and tissues levels of the oligonucleotides were determined. In addition, histolocial evaluation of the liver, kidney, and heart was performed.
Rats were weighed prior to administration and on days 1, 3, 6, 7, and 9. Organs were harvested at the end of the study, and organ weights and tissues levels of the oligonucleotides were determined. In addition, histological evaluation of the liver, kidney, and heart was performed.

[4] = High dosages of IRPs in mice (weight, histology); assay type: in vivo, BALB/c mice
Protocol: To test the activity of IRPs at high dosages in mice, IRPs or a control (saline) were subcutaneously administered to BALB/c mice at a dosage of 4 mg/kg, 20 mg/kg, 50 mg/kg, or 100 mg/kg on days 1, 4, 7, and 10 (n=5 per group). Mice were weighed prior to administration and on days 2, 4, 7, 9, and 11. Serum cytokines were assayed at two hours post the first and third injections and 24 hours post the fourth injection. Organs were harvested at the end of the study, and organ weights and tissues levels of the oligonucleotides were determined. In addition, histological evaluation of the liver, kidney, and heart was performed.
Mice were weighed prior to administration and on days 1, 3, 4, 6, 7, and 9. Organs were harvested at the end of the study, and organ weights and tissues levels of the oligonucleotides were determined. In addition, histological evaluation of the liver, kidney, and heart was performed.

[5] = Experiment # 3, Max Conc 4.0 uM
[6] = 10 mg/kg, 0 = no change to 4 = severe
[7] = 90 mg/kg, 0 = no change to 4 = severe
[8] = 100 mg/kg, 0 = no change to 4 = severe

In the case of “5′-TCGTCGAACGTTCGAGATGAT-3′ [SEQ ID NO:158, reference compound]”, the “protection from GC-induced cell death” value (PDC) is reported as “afforded significant protection from GC-induced cell death”.
With OCCCCCCCCCCCCO [1,12-dihydroxydodecane] the solubility [1] was less than 5000 µg/mL.
For “5′-UGC TGC TCC TTG AGI GGT TGT TTG T-3′ (DNA UGCTGCTCCTTGAGNGGTTGTTTGT; DNA, [I] at 15, backbone and methylation of C not given here) [SEQ ID NO:109]”, the “fraction in monomer form” value ([2]; five weeks) was 100%, the “fraction in monomer form” value ([2]; three weeks) was 100% and the “Normalized IL-6 Response (Percentage of Positive Control)” value (human B-cells; Experiment # 1, Max Conc 4.0 uM) was 58%. For the same compound, the “Normalized IL-6 Response (Percentage of Positive Control)” value (human B-cells; Experiment # 2, Max Conc 4.0 uM) was 52%, the “Normalized IL-6 Response (Percentage of Positive Control)” value (human B-cells; [5]) was 39% and the “Normalized IL-6 Response (Percentage of Positive Control)” value (human B-cells; Experiment # 4, Max Conc 4.0 uM) was 45%. The “Normalized IL-6 Response (Percentage of Positive Control)” value (human B-cells; Experiment # 5, Max Conc 4.0 uM) was 53%, the “Normalized IL-6 Response (Percentage of Positive Control)” value (human B-cells; Experiment # 6, Max Conc 4.0 uM) was 58% and the “Normalized IL-6 Response (Percentage of Positive Control)” value (human B-cells; Experiment # 7, Max Conc 4.0 uM) was 45%. For the same compound, the “Normalized IL-6 Response (Percentage of Positive Control)” value (human B-cells; Experiment # 8, Max Conc 2.0 uM) was 42%, the “Normalized IL-6 Response (Percentage of Positive Control)” value (human B-cells; Experiment # 9, Max Conc 2.0 uM) was 64% and the “Normalized IL-6 Response (Percentage of Positive Control)” value (human B-cells; Experiment # 10, Max Conc 2.0 uM) was 63%. The “Normalized IL-6 Response (Percentage of Positive Control)” value (human B-cells; Experiment # 11, Max Conc 2.0 uM) was 54%, the “B-cell response as evidenced by IL-6 produced” value (human B-cells; human B-cells with IRP alone, 48 hours, FIGS. 1A-B) was “induced a B-cell response” and the “Kidney: tubular basophilia” value ([3]; 10 mg/kg) was “occurred”. For the same compound, the “organ weight of the liver, heart, kidney, or spleen” value ([3]; 10 mg/kg or 100 mg/kg SC days 0, 3, 6, 9) was “no significant difference”, the “Heart: Cell Vacuolation, number of animals” value ([3]; 10 mg/kg) was 0 and the “Heart: Hemorrhage, number of animals” value ([3]; 10 mg/kg) was 0. The “Heart: Mononuclear Cell Infiltration, number of animals” value ([3]; 10 mg/kg) was 0, the “Heart: Necrosis, number of animals” value ([3]; 10 mg/kg) was 0 and the “Heart: No significant changes, number of animals” value (shortened to “Heart: No significant changes”) ([3]; 10 mg/kg) was 6. The “Liver: Liver changes, number of animals” value ([3]; 10 mg/kg) was 6, the “Liver: Mixed cell infiltration, number of animals” value ([3]; 10 mg/kg) was 6 and the “Liver: Necrosis, number of animals” value ([3]; 10 mg/kg) was 0. For the same compound, the “Liver: No significant changes, number of animals” value ([3]; 10 mg/kg) was 0, the “Liver: Vacuolation, number of animals” value ([3]; 10 mg/kg) was 0 and the “Right Kidney: Hydronephrosis, number of animals” value ([3]; 10 mg/kg) was 0. The “Right Kidney: Mineralization, number of animals” value ([3]; 10 mg/kg) was 0, the “Right Kidney: Necrosis, number of animals” value ([3]; 10 mg/kg) was 0 and the “Right Kidney: No significant changes, number of animals” value (“Right Kidney: No significant changes” for short) ([3]; 10 mg/kg) was 0. The “Right Kidney: Tubular basophilia, number of animals” value ([3]; 10 mg/kg) was 6, the “Right Kidney: Tubular changes, number of animals” value ([3]; 10 mg/kg) was 6 and the “Liver: Liver changes, mean severity score” value [3, 6] was 1.0. The “Liver: Mixed cell infiltration, mean severity score” value [3, 6] was 2.5, the “Right Kidney: Tubular basophilia, mean severity score” value [3, 6] was 1.5 and the “Right Kidney: Tubular changes, mean severity score” value [3, 6] was 1.0. The “Heart: cellular vacuolation” value ([3]; 90 mg/kg) was “present in some animals”, the “Heart: hemorrhage and necrosis” value ([3]; 90 mg/kg) was “noted” and the “Kidney: tubular basophilia” value ([3]; 90 mg/kg) was “occurred”. For the same compound, the “Liver: hepatocellular cytoplasmic vacuolation” value ([3]; 90 mg/kg) was “hepatocellular cytoplasmic vacuolation”, the “Liver: hepatocellular necrosis” value ([3]; 90 mg/kg) was “hepatocellular necrosis” and the “Renal necrosis” value ([3]; 90 mg/kg) was “noted”. The “deaths two days after the first dose” value ([3]; 90 mg/kg SC, n=6) was “one rat died”, the “Heart: Cell Vacuolation, number of animals” value ([3]; 90 mg/kg) was 5 and the “Heart: Hemorrhage, number of animals” value ([3]; 90 mg/kg) was 1. The “Heart: Mononuclear Cell Infiltration, number of animals” value ([3]; 90 mg/kg) was 0, the “Heart: Necrosis, number of animals” value ([3]; 90 mg/kg) was 1 and the “Heart: No significant changes” value ([3]; 90 mg/kg) was 0. The “Liver: Liver changes, number of animals” value ([3]; 90 mg/kg) was 6, the “Liver: Mixed cell infiltration, number of animals” value ([3]; 90 mg/kg) was 6 and the “Liver: Necrosis, number of animals” value ([3]; 90 mg/kg) was 6. The “Liver: No significant changes, number of animals” value ([3]; 90 mg/kg) was 0, the “Liver: Vacuolation, number of animals” value ([3]; 90 mg/kg) was 6 and the “Right Kidney: Hydronephrosis, number of animals” value ([3]; 90 mg/kg) was 0. The “Right Kidney: Mineralization, number of animals” value ([3]; 90 mg/kg) was 1, the “Right Kidney: Necrosis, number of animals” value ([3]; 90 mg/kg) was 1 and the “Right Kidney: No significant changes” value ([3]; 90 mg/kg) was 0. The “Right Kidney: Tubular basophilia, number of animals” value ([3]; 90 mg/kg) was 5, the “Right Kidney: Tubular changes, number of animals” value ([3]; 90 mg/kg) was 5 and the “Heart: Cell Vacuolation, mean severity score” value [3, 7] was 1.8. For the same compound, the “Heart: Hemorrhage, mean severity score” value [3, 7] was 3.0, the “Heart: Necrosis, mean severity score” value [3, 7] was 1.0 and the “Liver: Liver changes, mean severity score” value [3, 7] was 3.5. The “Liver: Mixed cell infiltration, mean severity score” value [3, 7] was 2.0, the “Liver: Necrosis, mean severity score” value [3, 7] was 2.0 and the “Liver: Vacuolation, mean severity score” value [3, 7] was 2.0. The “Right Kidney: Mineralization, mean severity score” value [3, 7] was 1.0, the “Right Kidney: Necrosis, mean severity score” value [3, 7] was 4.0 and the “Right Kidney: Tubular basophilia, mean severity score” value [3, 7] was 3.0. The “Right Kidney: Tubular changes, mean severity score” value [3, 7] was 2.0, the “total weight and % weight gain/loss” value ([3]; 100 mg/kg) was “decrease in total weight and % weight gain/loss” and the “weight loss as % gain versus pre-dose” value ([4]; 100 mg/kg SC days 1, 4, 7, 10) was “provoked weight loss”.
In the case of “5′-TGC TGC TCC TGG AGI GGT TG-HEG-T-3′ (DNA TGCTGCTCCTGGAGNGGTTGNT; inosine, internal HEG spacer, chemistry not fully specified) [SEQ ID NO:144]”, the “fraction in monomer form” value ([2]; five weeks) is reported as 100%, the “Normalized IL-6 Response (Percentage of Positive Control)” value (human B-cells; [5]) is reported as 10% and the B-cell stimulatory activity (human B-cells; FIG. 1C, percent IL-6 from CpG-ISS) is reported as “low B-cell stimulatory activity”. The “Liver: hepatocellular cytoplasmic vacuolation” value ([3]; 10 mg/kg) was “hepatocellular cytoplasmic vacuolation”, the “Heart: cellular vacuolation” value ([3]; 90 mg/kg) was “present in some animals” and the “Kidney: tubular basophilia” value ([3]; 90 mg/kg) was “occurred”. For the same compound, the “Liver: hepatocellular cytoplasmic vacuolation” value ([3]; 90 mg/kg) was “hepatocellular cytoplasmic vacuolation”, the “Liver: hepatocellular necrosis” value ([3]; 90 mg/kg) was “hepatocellular necrosis” and the “Heart: Chronic inflammation, number of animals” value ([4]; 100 mg/kg) was 1. For the same compound, the “Heart: Mineralization, number of animals” value ([4]; 100 mg/kg) was 2, the “Heart: Chronic inflammation, mean severity score” value [4, 8] was 3.0 and the “Heart: Mineralization, mean severity score” value [4, 8] was 2.5. For the same compound, the “Liver: Liver changes, mean severity score” value [4, 8] was 2.0, the “Liver: Mixed cell infiltration, mean severity score” value [4, 8] was 2.0 and the “Right Kidney: Tubular changes, mean severity score” value [4, 8] was 2.0. For the same compound, the “Liver: Liver changes, number of animals” value ([4]; 100 mg/kg, 6 animals) was 6, the “Liver: Mixed cell infiltration, number of animals” value ([4]; 100 mg/kg, 6 animals) was 6 and the “Liver: No significan changes, number of animals” value ([4]; 100 mg/kg, 6 animals) was 0. For the same compound, the “Right Kidney: No significant changes” value ([4]; 100 mg/kg, 6 animals) was 0, the “Right Kidney: Tubular basophilia, number of animals” value ([4]; 100 mg/kg, 6 animals) was 0 and the “Right Kidney: Tubular changes, number of animals” value ([4]; 100 mg/kg, 6 animals) was 6. The “Heart: No significant changes” value ([4]; 100 mg/kg, tissue missing in two animals) was 1**.
